US20130288980A1, “TARGETING SENESCENT AND CANCER CELLS FOR SELECTIVE KILLING BY INTERFERENCE WITH FOXO4” (Buck Institute for Research on Aging, priority 2012, published 2013)
“Also recorded” adds a separate entry of the source.

Tests used:
A375 melanoma cells = assay: A375-shGFP versus A375-shFOXO4 sensitivity to chemotherapeutic agents (MTS); type: cell-based, human
Description: FIG. 12A: 2×10^4 A375-shGFP or A375-shFOXO4-2 cells were plated in triplicate in 96-well plate chambers. The next day the cells were incubated with the indicated concentrations of PLX4032 or left untreated. After 6 days the a CellTiter 96® AQueous One Solution Cell Proliferation Assay (MTS) was performed according to the manufacturer's instructions (Promega) to determine the relative number of cells versus Mock treated A375-shGFP or A375-shFOXO4-2 melanoma cells (Left panel). Additionally, in a separate experiment the cells were refreshed at day 7 with the same dose of PLX4032 and left for another 4 days after which the same procedure was performed. FIG. 12B: Similar experiment as in A), except with the general RAF inhibitor RAF265. FIG. 12C: Similar experiment as in A), except with the MEK inhibitor AZD6244.

FOXO4 = FOXO4 knockdown by lentiviral short hairpins: FOXO4 mRNA (QPCR) and punctate FOXO4 staining after 10Gy XRAY; type: cell-based, human; details: HCA2 fibroblasts, 8 days after 10Gy XRAY
Description: FIG. 1A: 3×10^6 Normal Human IMR90 fibroblasts were plated in 6 cm dishes and the next day exposed to 10Gy ionizing radiation (XRAY) or left untreated. At the indicated time-points protein samples were prepared by collecting the cells in 1× Laemli Sample buffer. The indicated proteins were detected by western blot using antibodies against FOXO4 (#9472, Cell Signaling), FOXO3a (#07-702, Upstate/Millipore) and Tubulin (B-5-1-2, Sigma-Aldrich). FIG. 1B: 10^4 Normal human HCA2 fibroblasts were plated in 96-well plates in triplicate per condition and the next day exposed to 10Gy ionizing radiation (XRAY) or left untreated. At the indicated time-points mRNA and subsequent cDNA samples were collected using the Cells-to-Ct kit from Ambion according to the manufacturer's instructions. Real-time QPCR was subsequently performed using the Universal Probe Library system from Roche with the following primers/probe combinations: For FOXO4: Probe 18, FOXO4-fwd: 5′-[…]-3′, FOXO4-Rev: 5′-[…]-3′. For Tubulin: Probe 58, Tubulin-Fwd: 5′-[…]-3′ and Tubulin-Rev 5′-[…]-3′. Changes in mRNA expression were calculated using the ΔΔCT method. FIG. 1C: 2×10^5 IMR90 fibroblasts were plated on glass coverslips and the next day exposed to 10Gy ionizing radiation (XRAY) or left untreated. […]

[1] = system: BRAFV600E-mutated A375 malignant melanoma cells; assay: Cytochrome C release in shFOXO4-infected A375 cells treated with PLX4032; type: cell-based, human; details: shFOXO4 versus control hairpin; PLX4032 0.5, 2 and 10 μM
Description: FIG. 9B: BRAF^V600E-mutated A375 malignant melanoma cells were infected as in FIG. 2a and selected for 3 days with 1 μg/ml Puromycin. Subsequently 2×10^4 cells were plated in triplicate on glass coverslips in 24-well plate chambers. The next day the cells were incubated with the indicated concentrations of the BRAF^V600E-inhibitor PLX4032 in the presence of 20 μM of the general caspase-inhibitor Q-VD-OPH. After 5 days the cells were processed as in FIG. 2b for Cytochrome C staining and the percentage of cells with Cytochrome C release was quantified.

[2] = system: BRAFV600E-driven melanoma cells such as A375; details: Sala et al. 2008; cited from earlier work
metastatic melanoma = details: patients with metastatic melanoma; Bollag 2010, Sosman 2012; cited from earlier work

Row | Molecule | sensitivity of A375-shFOXO4 compared with A375-shGFP cells to the drug (A375 melanoma cells) | knockdown of FOXO4 mRNA and reduction in punctate FOXO4 staining (FOXO4) | other results
1 | Cn1c(Nc2ccc(C(F)(F)F)cc2)nc2cc(Oc3ccnc(-c4ncc(C(F)(F)F)[nH]4)c3)ccc21 [RAF265] | more sensitive |  | 
2 | 5′-CGTCCACGAAGCAGTTCAAAT-3′ [shFOXO4-2] |  | induce knockdown of FOXO4 mRNA and reduction in punctate FOXO4 | 
3 | Cn1cnc2c(F)c(Nc3ccc(Br)cc3Cl)c(C(=O)NOCCO)cc21 [AZD6244] | more sensitive |  | 
4 | 5′-CCAGCTTCAGTCAGCAGTTAT-3′ [shFOXO4-1] |  | induce knockdown of FOXO4 mRNA and reduction in punctate FOXO4 | 
5 | N.N.[Cl][Pt][Cl] [Cisplatin] | more sensitive |  | 
6 | CCCS(=O)(=O)Nc1ccc(F)c(C(=O)c2c[nH]c3ncc(-c4ccc(Cl)cc4)cc23)c1F [PLX4032] | more sensitive |  | sensitivity to PLX4032 on FOXO4 knockdown (Cytochrome C release) [1]: strongly sensitized; also recorded: Increased sensitivity; apoptosis [2]: trigger apoptosis; tumor-free survival rates (metastatic melanoma): Major improvements in tumor-free survival rates
